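The compound was tested at five concentrations on cells cultured in 96-well plates, with a 48-hour exposure period. The concentration for 50% growth inhibition is given as GI50. TGI: concentration producing complete growth inhibition.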
Assays:
Experiment in all cases: growth of human tumour cells (NCI), 48 h
T-47D breast = tested on: T-47D breast
CCRF-CEM leukemia = tested on: CCRF-CEM leukemia
COLO 205 colon = tested on: COLO 205 colon
NCI-H226 lung = tested on: NCI-H226 lung
BT-549 breast = tested on: BT-549 breast
TK-10 renal = tested on: TK-10 renal
ACHN renal = tested on: ACHN renal
KM12 colon = tested on: KM12 colon
HT29 colon = tested on: HT29 colon
UACC-257 melanoma = tested on: UACC-257 melanoma

SMILES | GI50 (T-47D breast) | TGI (T-47D breast) | GI50 (CCRF-CEM leukemia) | TGI (CCRF-CEM leukemia) | GI50 (COLO 205 colon) | TGI (COLO 205 colon) | GI50 (NCI-H226 lung) | TGI (NCI-H226 lung) | GI50 (BT-549 breast) | TGI (BT-549 breast) | GI50 (TK-10 renal) | TGI (TK-10 renal) | GI50 (ACHN renal) | TGI (ACHN renal) | GI50 (KM12 colon) | TGI (KM12 colon) | GI50 (HT29 colon) | TGI (HT29 colon) | GI50 (UACC-257 melanoma) | TGI (UACC-257 melanoma)
COc1ccc(/C=C\c2cc(OC)c(OC)c(OC)c2)cc1OCC(=O)Nc1nc2ccc(OC(F)(F)F)cc2s1 | 3.95 µM | > 100 µM | 4.12 µM | > 100 µM | 43.3 µM | > 100 µM | 4.3 µM | 62.2 µM | 10.5 µM | > 100 µM | 18.6 µM | > 100 µM | 8.31 µM | > 100 µM | 4.48 µM | 51.5 µM | > 100 µM | > 100 µM | 89.2 µM | > 100 µM
COc1ccc(-c2ccccc2)cc1-c1c(Nc2cc(Cl)cc(Cl)c2O)c(=O)c1=O | 1.7 µM | > 50 µM | 1.64 µM | > 50 µM | 1.9 µM | 44.8 µM | 1.57 µM | > 50 µM | 1.41 µM | 4.59 µM | 2.84 µM | > 50 µM | 1.5 µM | > 50 µM | 1.53 µM | > 50 µM | 1.92 µM | > 50 µM | 1.44 µM | 4.77 µM
O=C(CCCn1ccnc1[N+](=O)[O-])NCCn1ccnc1[N+](=O)[O-] |  | > 100 µM |  | > 100 µM |  | > 100 µM |  | > 100 µM |  | > 100 µM |  | > 100 µM |  | > 100 µM |  | > 100 µM |  | > 100 µM |  | > 100 µM
COc1cc(/C=C2\C(=O)Nc3ccccc32)cc(OC)c1OC | > 100 µM | > 100 µM | 8.82 µM | > 100 µM | 14.5 µM | 47.9 µM | 26.1 µM | > 100 µM | 28.7 µM | > 100 µM | 29.4 µM | > 100 µM | 26.4 µM | > 100 µM | 11.7 µM | 98 µM | 19.8 µM | > 100 µM | 8.81 µM | 54 µM
CC1(C)N[P+]2(Nc3ccccc3O2)OC1=O (centres undefined) |  | > 100 µM |  | > 100 µM |  | 49.9 µM |  | > 100 µM |  | > 100 µM |  | > 100 µM |  | > 100 µM |  | > 100 µM |  | > 100 µM |  | > 100 µM
CCC(=O)c1ccc2c(c1)N(CCCN1CCN(CCO)CC1)c1ccccc1S2 | 14 µM | 31.5 µM | 9.67 µM | 27.9 µM | 12.1 µM | 26.5 µM | 17.6 µM | 33.8 µM | 14.9 µM | 28.9 µM | 13.9 µM | 27.5 µM | 16.2 µM | 32 µM | 14.9 µM | 28.7 µM | 3.98 µM | 14.7 µM | 2.86 µM | 7.97 µM
CCN1CCC(CC(=O)Nc2n[nH]c3nc(-c4cccs4)c(Br)cc23)CC1 | 12.4 µM | > 25 µM | 9.57 µM | > 25 µM | 3.91 µM | 8.16 µM | 12.1 µM | > 25 µM | > 23 µM | > 25 µM | 5.81 µM | > 21.4 µM | 7.96 µM | > 25 µM | 5.81 µM | 13.8 µM | 4.47 µM | 11.1 µM | 5.58 µM | 10.8 µM
COC(=O)[C@@H]1CCCN1C(=O)[C@H]1CCCN1C(=O)[C@@H](Cc1c[nH]c2ccccc12)NC(=S)Nc1cc(C(F)(F)F)cc(C(F)(F)F)c1 | 2.44 µM | 7.53 µM | 3.25 µM | 11.3 µM | 2.06 µM | 3.97 µM | 2.86 µM | 11.7 µM | 3.52 µM | 11.3 µM | 2.58 µM | 6.62 µM | 2.97 µM | 11 µM | 2.84 µM | 8.01 µM | 1.97 µM | 3.84 µM | 2.5 µM | 6.99 µM
Cc1cc(N=C2C=C(Nc3cc(C)on3)C(=O)c3ccccc32)no1 |  | > 100 µM |  | > 100 µM |  | > 88.3 µM |  | > 100 µM |  | 74.9 µM |  | > 100 µM |  | > 100 µM |  | > 100 µM |  | > 100 µM |  | 47 µM
CCOC(=O)C1=C(c2ccccc2)N(c2ccc(OC)cc2)[C@]2(C#N)C(O)=C(Cl)C(Cl)=C(O)[C@]12C#N | 21.2 µM | 44.9 µM | 10.1 µM | 23.6 µM | 18.6 µM | 33.5 µM | 20.2 µM | 42.5 µM | 24.2 µM | 56.4 µM | 24.3 µM | 74.8 µM | 19.7 µM | 42.1 µM | 18.3 µM | 36.5 µM | 34.8 µM | > 100 µM | 22.2 µM | 52.2 µM
O=[N+]([O-])c1cccc(-c2cc(-c3cc(Br)ccc3O)[nH]n2)c1 | 2.64 µM | 8.84 µM | 3.94 µM | 19.9 µM | 2.23 µM | 5.16 µM | 3.66 µM | 27.2 µM | 1.26 µM | 4.61 µM | 2.26 µM | 6.71 µM | 3.23 µM |  | 2.13 µM | 6 µM | 3.55 µM | 12 µM | 2.5 µM | 6.49 µM
